Test results: paper PMC10866072, “Design, synthesis, molecular modelling and biological evaluation of novel 6-amino-5-cyano-2-thiopyrimidine derivatives as potent anticancer agents against leukemia and apoptotic inducers” (Journal of Enzyme Inhibition and Medicinal Chemistry, 2024)

Tests used:
CCRF-CEM = type: cell-based; conditions: Homo sapiens, one dose 10^-5 M, 48 h
HL-60(TB) = type: cell-based; conditions: Homo sapiens, one dose 10^-5 M, 48 h
K-562 = type: cell-based; conditions: Homo sapiens, K562, one dose 10^-5 M, 48 h
MOLT-4 = type: cell-based; conditions: Homo sapiens, one dose 10^-5 M, 48 h, read-out: % growth
RPMI-8226 = type: cell-based; conditions: Homo sapiens, one dose 10^-5 M, 48 h
SR = type: cell-based; conditions: Homo sapiens, one dose 10^-5 M, 48 h
A549/ATCC = type: cell-based; conditions: Homo sapiens, one dose 10^-5 M, 48 h
EKVX = type: cell-based; conditions: Homo sapiens, one dose 10^-5 M, 48 h
HOP-62 = type: cell-based; conditions: Homo sapiens, one dose 10^-5 M, 48 h
HOP-92 = type: cell-based; conditions: one dose 10^-5 M, 48 h; for % growth at 10 µM: Homo sapiens
NCI-H226 = type: cell-based; conditions: one dose 10^-5 M, 48 h; for % growth at 10 µM: Homo sapiens
NCI-H23 = type: cell-based; conditions: Homo sapiens, one dose 10^-5 M, 48 h, read-out: % growth
NCI-H460 = type: cell-based; conditions: Homo sapiens, one dose 10^-5 M, 48 h, read-out: % growth
NCI-H522 = type: cell-based; conditions: Homo sapiens, one dose 10^-5 M, 48 h
HCC-2998 = type: cell-based; conditions: Homo sapiens, one dose 10^-5 M, 48 h
HCT-116 = type: cell-based; conditions: Homo sapiens, one dose 10^-5 M, 48 h, read-out: % growth
HCT-15 = type: cell-based; conditions: Homo sapiens, one dose 10^-5 M, 48 h, read-out: % growth
HT29 = type: cell-based; conditions: Homo sapiens, HT-29, one dose 10^-5 M, 48 h
KM12 = type: cell-based; conditions: Homo sapiens, one dose 10^-5 M, 48 h
SW-620 = type: cell-based; conditions: Homo sapiens, one dose 10^-5 M, 48 h
SF-268 = type: cell-based; conditions: Homo sapiens, one dose 10^-5 M, 48 h, read-out: % growth
SF-295 = type: cell-based; conditions: Homo sapiens, one dose 10^-5 M, 48 h
SF-539 = type: cell-based; conditions: Homo sapiens, one dose 10^-5 M, 48 h
SNB-19 = type: cell-based; conditions: Homo sapiens, one dose 10^-5 M, 48 h, read-out: % growth
SNB-75 = type: cell-based; conditions: one dose 10^-5 M, 48 h; for % growth at 10 µM: Homo sapiens
U251 = type: cell-based; conditions: Homo sapiens, U-251, one dose 10^-5 M, 48 h
LOX IMVI = type: cell-based; conditions: Homo sapiens, one dose 10^-5 M, 48 h, read-out: % growth
MALME-3M = type: cell-based; conditions: Homo sapiens, one dose 10^-5 M, 48 h
M14 = type: cell-based; conditions: Homo sapiens, one dose 10^-5 M, 48 h
MDA-MB-435 = type: cell-based; conditions: Homo sapiens, one dose 10^-5 M, 48 h, read-out: % growth
SK-MEL-2 = type: cell-based; conditions: Homo sapiens, one dose 10^-5 M, 48 h
SK-MEL-28 = type: cell-based; conditions: Homo sapiens, one dose 10^-5 M, 48 h
SK-MEL-5 = type: cell-based; conditions: Homo sapiens, one dose 10^-5 M, 48 h, read-out: % growth
UACC-257 = type: cell-based; conditions: Homo sapiens, one dose 10^-5 M, 48 h
UACC-62 = type: cell-based; conditions: Homo sapiens, one dose 10^-5 M, 48 h
IGROV1 = type: cell-based; conditions: Homo sapiens, IGROV-1, one dose 10^-5 M, 48 h, read-out: % growth
OVCAR-3 = type: cell-based; conditions: Homo sapiens, one dose 10^-5 M, 48 h
OVCAR-4 = type: cell-based; conditions: Homo sapiens, one dose 10^-5 M, 48 h
OVCAR-5 = type: cell-based; conditions: Homo sapiens, one dose 10^-5 M, 48 h
OVCAR-8 = type: cell-based; conditions: Homo sapiens, one dose 10^-5 M, 48 h
SK-OV-3 = type: cell-based; conditions: Homo sapiens, one dose 10^-5 M, 48 h
786-0 = type: cell-based; conditions: Homo sapiens, one dose 10^-5 M, 48 h
A498 = type: cell-based; conditions: Homo sapiens, one dose 10^-5 M, 48 h
ACHN = type: cell-based; conditions: Homo sapiens, one dose 10^-5 M, 48 h
CAKI-1 = type: cell-based; conditions: Homo sapiens, CAKI-1, 48 h, one dose 10^-5 M, 48 h
RXF 393 = type: cell-based; conditions: Homo sapiens, RXF 393, 48 h, one dose 10^-5 M, 48 h, read-out: % growth
SN12C = type: cell-based, human; conditions: Homo sapiens, one dose 10^-5 M, 48 h
TK-10 = type: cell-based; conditions: Homo sapiens, one dose 10^-5 M, 48 h
UO-31 = type: cell-based; conditions: Homo sapiens, UO-31, 48 h, one dose 10^-5 M, 48 h
PC-3 = type: cell-based; conditions: Homo sapiens, one dose 10^-5 M, 48 h
DU-145 = type: cell-based; conditions: Homo sapiens, one dose 10^-5 M, 48 h
MCF7 = type: cell-based; conditions: Homo sapiens, one dose 10^-5 M, 48 h, read-out: % growth
MDA-MB-231/ATCC = type: cell-based; conditions: Homo sapiens, one dose 10^-5 M, 48 h
HS 578T = type: cell-based; conditions: one dose 10^-5 M, 48 h, HS 578T; for activity at 10 µM: Homo sapiens, read-out: % growth
T-47D = type: cell-based; conditions: Homo sapiens, T47D, one dose 10^-5 M, 48 h, read-out: % growth
MDA-MB-468 = type: cell-based; conditions: Homo sapiens, one dose 10^-5 M, 48 h
[1] = system: full NCI 60 cell lines panel; conditions: for activity at 10 µM: Homo sapiens, 60 cell, 48 h, read-out: Mean % growth

Structure (SMILES): N=C(NN=Cc1ccccc1)c1c(N)nc(S)nc1-c1ccc(Cl)cc1 [Compound 4g, 4-amino-6–(4-chlorophenyl)-2-mercapto-N'-[phenylmethylene]pyrimidine-5-carboximido hydrazide]
- % cell growth at 10 µM (CCRF-CEM): 65%
- % growth at 10 µM (HL-60(TB)): 97%
- % growth at 10 µM (K-562): 52.4%
- activity at 10 µM (MOLT-4): 58.5%
- % growth at 10 µM (RPMI-8226): 51.4%
- percent cell growth at 10 µM (SR): 46.4%
- % growth at 10 µM (A549/ATCC): 31.6%
- % cell growth at 10 µM (EKVX): 52.9%
- % growth at 10 µM (HOP-62): 30.2%
- % growth at 10 µM (HOP-92): -0.44%
- % growth (HOP-92): -0.44%
- % growth at 10 µM (NCI-H226): -0.68%
- % growth (NCI-H226): -0.68%
- activity at 10 µM (NCI-H23): 64.3%
- activity at 10 µM (NCI-H460): 16.5%
- % growth at 10 µM (NCI-H522): 56.4%
- % growth at 10 µM (HCC-2998): 93.1%
- activity at 10 µM (HCT-116): 30.6%
- activity at 10 µM (HCT-15): 53.1%
- % growth at 10 µM (HT29): 78.5%
- % growth at 10 µM (KM12): 62.3%
- % growth at 10 µM (SW-620): 76.3%
- activity at 10 µM (SF-268): 49.3%
- % cell growth at 10 µM (SF-295): 35.6%
- % growth at 10 µM (SF-539): 11.4%
- activity at 10 µM (SNB-19): 59.8%
- % growth at 10 µM (SNB-75): -34.3%
- % growth (SNB-75): -34.30%
- % growth at 10 µM (U251): 13.2%
- activity at 10 µM (LOX IMVI): 22.6%
- % growth at 10 µM (MALME-3M): 52.1%
- % growth at 10 µM (M14): 70.6%
- activity at 10 µM (MDA-MB-435): 77.3%
- % growth at 10 µM (SK-MEL-2): 92.7%
- % cell growth at 10 µM (SK-MEL-28): 88.5%
- activity at 10 µM (SK-MEL-5): 84.9%
- percent cell growth at 10 µM (UACC-257): 92.8%
- % growth at 10 µM (UACC-62): 78.1%
- activity at 10 µM (IGROV1): 62.6%
- % growth at 10 µM (OVCAR-3): 77.7%
- % growth at 10 µM (OVCAR-4): 37.5%
- percent cell growth at 10 µM (OVCAR-5): 80.1%
- % growth of cells at 10 µM (OVCAR-8): 20.4%
- % growth at 10 µM (SK-OV-3): 81%
- % growth at 10 µM (786-0): 41.7%
- % growth at 10 µM (A498): 105%
- % growth at 10 µM (ACHN): 23.3%
- % growth at 10 µM (CAKI-1): 31.2%
- activity at 10 µM (RXF 393): 8.96%
- % growth at 10 µM (SN12C): 73.9%
- % cell growth at 10 µM (TK-10): 93.9%
- % cell growth at 10 µM (UO-31): 29.4%
- percent cell growth at 10 µM (PC-3): 52.6%
- % growth at 10 µM (DU-145): 48.7%
- activity at 10 µM (MCF7): 42.2%
- % growth at 10 µM (MDA-MB-231/ATCC): 1.22%
- activity at 10 µM (HS 578T): -6.98%
- % growth (HS 578T): -6.98%
- activity at 10 µM (T-47D): 49.4%
- percent cell growth at 10 µM (MDA-MB-468): 49.7%
- activity at 10 µM [1]: 50.8%
- % growth values, cell lines with lethal effect ([1]; one dose, range over those cell lines): −0.44%to-34.30

Structure (SMILES): N=C(NN=Cc1ccc(Cl)cc1)c1c(N)nc(S)nc1-c1ccc(Cl)cc1 [Compound 4h, 4-amino-6–(4-chlorophenyl)-N'-[(4-chlorophenyl)methylene]-2-mercapto pyrimidine-5-carboximidohydrazide]
- % cell growth at 10 µM (CCRF-CEM): 75.5%
- % growth at 10 µM (HL-60(TB)): 101%
- % growth at 10 µM (K-562): 86%
- activity at 10 µM (MOLT-4): 85.8%
- % growth at 10 µM (RPMI-8226): 83.8%
- percent cell growth at 10 µM (SR): 86.8%
- % growth at 10 µM (A549/ATCC): 93.1%
- % cell growth at 10 µM (EKVX): 75%
- % growth at 10 µM (HOP-62): 95.6%
- % growth at 10 µM (HOP-92): 84.2%
- % growth at 10 µM (NCI-H226): 99%
- activity at 10 µM (NCI-H23): 93.7%
- activity at 10 µM (NCI-H460): 93.7%
- % growth at 10 µM (NCI-H522): 85.4%
- % growth at 10 µM (HCC-2998): 103%
- activity at 10 µM (HCT-116): 86%
- activity at 10 µM (HCT-15): 90.4%
- % growth at 10 µM (HT29): 99%
- % growth at 10 µM (KM12): 91.9%
- % growth at 10 µM (SW-620): 103%
- activity at 10 µM (SF-268): 96%
- % cell growth at 10 µM (SF-295): 90.2%
- % growth at 10 µM (SF-539): 80.4%
- activity at 10 µM (SNB-19): 87.5%
- % growth at 10 µM (SNB-75): 83.5%
- % growth at 10 µM (U251): 94%
- activity at 10 µM (LOX IMVI): 94.3%
- % growth at 10 µM (MALME-3M): 107%
- % growth at 10 µM (M14): 104%
- activity at 10 µM (MDA-MB-435): 98.8%
- % growth at 10 µM (SK-MEL-2): 101%
- % cell growth at 10 µM (SK-MEL-28): 100%
- activity at 10 µM (SK-MEL-5): 97.3%
- percent cell growth at 10 µM (UACC-257): 101%
- % growth at 10 µM (UACC-62): 81.8%
- activity at 10 µM (IGROV1): 78.8%
- % growth at 10 µM (OVCAR-3): 107%
- % growth at 10 µM (OVCAR-4): 83.1%
- percent cell growth at 10 µM (OVCAR-5): 95.4%
- % growth of cells at 10 µM (OVCAR-8): 94.8%
- % growth at 10 µM (SK-OV-3): 77.5%
- % growth at 10 µM (786-0): 98.5%
- % growth at 10 µM (A498): 102%
- % growth at 10 µM (ACHN): 77.2%
- % growth at 10 µM (CAKI-1): 79.4%
- activity at 10 µM (RXF 393): 103%
- % growth at 10 µM (SN12C): 91.8%
- % cell growth at 10 µM (TK-10): 122%
- % cell growth at 10 µM (UO-31): 66.3%
- percent cell growth at 10 µM (PC-3): 79.6%
- % growth at 10 µM (DU-145): 108%
- activity at 10 µM (MCF7): 76.6%
- % growth at 10 µM (MDA-MB-231/ATCC): 69.7%
- activity at 10 µM (HS 578T): 93%
- activity at 10 µM (T-47D): 72.1%
- percent cell growth at 10 µM (MDA-MB-468): 99.3%
- activity at 10 µM [1]: 91%
- activity on all 60 cancer cell lines tested (in words) ([1]; one dose): weak activity
